# Tested on: Polio 2
# Assay: microbe, parasite or virus in culture
# Format: cell-based, polioviruses
# Settings: HeLa, read-out: MIC (Polio 2)
row,Compound,MIC [µg/mL]
1,"Cc1cc(CCCCCOc2ccc(-c3nccs3)cc2)on1 [Example 20, 3-Methyl-5-{5-[4-(2-thiazolyl)phenoxy]pentyl}-isoxazole]",0.06
2,"Cc1cc(CCCCCOc2c(Cl)cc(-c3nnn(C)n3)cc2Cl)on1 [23 (1st compd.), 5-{5-[2,6-dichloro-4-(2-methyl-2H-tetrazol-5-yl)phenoxy]pentyl}-3-methylisoxazole]",2.9
3,"Cc1cc(CCCCCOc2c(Cl)cc(-c3cccs3)cc2Cl)on1 [Example 1(c), 5-{5-[2,6-Dichloro-4-(2-thienyl)phenoxy]pentyl}-3-methylisoxazole]",2.5
4,"Cc1cc(CCCCCOc2ccc(-c3cccs3)cc2)on1 [Example 2, 3-Methyl-5-{5-(4-(2-thienyl)phenoxy]pentyl}-isoxazole]",0.02
5,"Cc1cc(CCCCCOc2ccc(-c3nc4ccccc4o3)cc2)on1 [Example 6, 5-{5-[4-(2-Benzoxazolyl)phenoxy]pentyl}-3-methylisoxazole]",0.9
6,"Cc1cc(CCCCCOc2c(Cl)cc(-c3ccc(C)s3)cc2Cl)on1 [10(b), 5-{5-[2,6-Dichloro-4-(5-methyl-2-thienyl)phenoxy]pentyl}-3-methylisoxazole]",4.4
7,"Cc1cc(CCCCCOc2ccc(-c3nc(C)c(C)s3)cc2)on1 [Example 3, 3-Methyl-5-{5-[4-(4,5-dimethyl-2-thiazolyl)phenoxy]-pentyl}isoxazole]",1
